Where two headings read alike, the source gives them in different places.
Experiments:
[1] = cited from earlier work
[2] = Hygroscopicity (water uptake) of crystalline aripiprazole forms; type: physicochemical; settings: small particle population (d90 8-50 microns), unmilled

Question: Which hygroscopicity ([1]; as taught by WO 03/26659) does the source give for `O=C1CCc2ccc(OCCCCN3CCN(c4cccc(Cl)c4Cl)CC3)cc2N1` [Type I aripiprazole, 7-[4-[4-(2,3-dichlorophenyl)-1-piperazinyl]butoxy]-3,4-dihydrocarbostyril] here?
Answer: significantly hygroscopic

Question: Which “water uptake (hygroscopicity)” value ([1]; in 24 hours, per WO 03/26659) does the source give for `O=C1CCc2ccc(OCCCCN3CCN(c4cccc(Cl)c4Cl)CC3)cc2N1` [Anhydrous Form B, 7-[4-[4-(2,3-dichlorophenyl)-1-piperazinyl]butoxy]-3,4-dihydrocarbostyril] here?
Answer: less than 0.4%

Question: With `O=C1CCc2ccc(OCCCCN3CCN(c4cccc(Cl)c4Cl)CC3)cc2N1` [aripiprazole Type II, 7-[4-[4-(2,3-dichlorophenyl)-1-piperazinyl]butoxy]-3,4-dihydrocarbostyril] as the molecule, how does the hygroscopicity [2] read?
Answer: not significantly hygroscopic and/or is non-hygroscopic
